From article PMC11579512, “Deoxybouvardin-glucoside induces apoptosis in non-small cell lung cancer cells by targeting EGFR/MET and AKT signaling pathway” (EXCLI Journal, 2024)

What was measured:
CDK4 = test: Immunoblot CDK4 in HCC827 and HCC827GR cells; type: cell-based, human; conditions: for CDK4 protein ratio: relative to DBG 0 nM = 1.00
Procedure: (§1) HaCaT cells were grown in DMEM, whereas HCC827 and HCC827GR cells were grown in RPMI 1640. All culture media were supplemented with FBS (10 %) and P/S (1 %), and the cells were grown at 37 °C in 5 % CO2.
Cells were lysed in RIPA buffer, and protein concentration was determined using a Bio-Rad DC Protein Assay kit (Bio-Rad, Hercules, CA, USA). Protein samples from the cell lysates were resolved by sodium dodecyl sulfate-polyacrylamide gel electrophoresis and then transferred onto polyvinylidene fluoride membranes. The membranes were blocked with 3 % or 5 % skim milk and then incubated at 4 °C overnight with the indicated primary antibodies, followed by the corresponding horseradish peroxidase-conjugated secondary antibodies at RT for 2 h. Protein bands were visualized using western blotting luminol reagent solution and ImageQuant LAS 500 (GE Healthcare, Uppsala, Sweden). The density of the bands was quantified using ImageJ software (NIH, Bethesda, MD, USA).

HCC827 cells = test: Annexin V/7-AAD apoptosis, HCC827; type: cell-based, human; set-up: Early apoptosis / Total apopt / Dead / Live: unit not given here; conditions: for apoptotic cells (annexin V+): 48 h, background 4.78 %; for Dead / Early apoptosis / Late apoptosis/Dead / Total apopt / Live: HCC827
Procedure: as §1
Apoptosis was measured using a Muse™ Annexin V & Dead Cell Kit (MCH100105, Merck Millipore). The fluorescent signal was analyzed with a Muse™ Cell Analyzer.

COc1ccc(C[C@H]2C(=O)N[C@@H](C)C(=O)N(C)[C@H]3Cc4ccc(cc4)Oc4cc(ccc4O[C@@H]4O[C@H](CO)[C@@H](O)[C@H](O)[C@H]4O)C[C@@H](C(=O)N[C@H](C)C(=O)N[C@@H](C)C(=O)N2C)N(C)C3=O)cc1 [DBG, deoxybouvardin glucoside]
level of CDKs (CDK4) (CDK4; DBG 3, 6, 12 nM, 48 h): significantly decreased
CDK4 protein/actin (CDK4; HCC827, DBG 3 nM, DBG 0 nM 0.59): 0.35
CDK4 protein ratio (CDK4; HCC827, DBG 3 nM): 0.58
CDK4 protein/actin (CDK4; HCC827, DBG 6 nM, DBG 0 nM 0.59): 0.30
CDK4 protein ratio (CDK4; HCC827, DBG 6 nM): 0.50
CDK4 protein/actin (CDK4; HCC827, DBG 12 nM, DBG 0 nM 0.59): 0.32
CDK4 protein ratio (CDK4; HCC827, DBG 12 nM): 0.53
CDK4 protein/actin (CDK4; HCC827GR, DBG 3 nM, DBG 0 nM 0.72): 0.61
CDK4 protein ratio (CDK4; HCC827GR, DBG 3 nM): 0.85
CDK4 protein/actin (CDK4; HCC827GR, DBG 6 nM, DBG 0 nM 0.72): 0.55
CDK4 protein ratio (CDK4; HCC827GR, DBG 6 nM): 0.77
CDK4 protein/actin (CDK4; HCC827GR, DBG 12 nM, DBG 0 nM 0.72): 0.30
CDK4 protein ratio (CDK4; HCC827GR, DBG 12 nM): 0.42
apoptotic cells (annexin V+) (HCC827 cells; DBG 3 nM): 9.60%
apoptotic cells (annexin V+) (HCC827 cells; DBG 6 nM): 15.30%
apoptotic cells (annexin V+) (HCC827 cells; DBG 12 nM): 44.90%
Dead (HCC827 cells; DBG 3 nM, mean of 3 samples, untreated 1.21): 1.72
Early apoptosis (HCC827 cells; DBG 3 nM, mean of 3 samples, untreated 1.30): 3.33
Late apoptosis/Dead (HCC827 cells; DBG 3 nM, mean of 3 samples, untreated 3.48): 6.27
Total apopt (HCC827 cells; DBG 3 nM, mean of 3 samples, untreated 4.78): 9.60
Live (HCC827 cells; DBG 3 nM, mean of 3 samples, untreated 94.01): 88.68
Dead (HCC827 cells; DBG 3 nM, replicate 1): 1.90
Early apoptosis (HCC827 cells; DBG 3 nM, replicate 1): 3.35
Late apoptosis/Dead (HCC827 cells; DBG 3 nM, replicate 1): 5.90
Live (HCC827 cells; DBG 3 nM, replicate 1): 88.85
Total apopt (HCC827 cells; DBG 3 nM, replicate 1): 9.25
Dead (HCC827 cells; DBG 3 nM, replicate 2): 1.75
Early apoptosis (HCC827 cells; DBG 3 nM, replicate 2): 3.40
Late apoptosis/Dead (HCC827 cells; DBG 3 nM, replicate 2): 5.90
Live (HCC827 cells; DBG 3 nM, replicate 2): 88.95
Total apopt (HCC827 cells; DBG 3 nM, replicate 2): 9.30
Dead (HCC827 cells; DBG 3 nM, replicate 3): 1.50
Early apoptosis (HCC827 cells; DBG 3 nM, replicate 3): 3.25
Late apoptosis/Dead (HCC827 cells; DBG 3 nM, replicate 3): 7.00
Live (HCC827 cells; DBG 3 nM, replicate 3): 88.25
Total apopt (HCC827 cells; DBG 3 nM, replicate 3): 10.25
Dead (HCC827 cells; DBG 6 nM, mean of 3 samples, untreated 1.21): 1.75
Early apoptosis (HCC827 cells; DBG 6 nM, mean of 3 samples, untreated 1.30): 6.37
Late apoptosis/Dead (HCC827 cells; DBG 6 nM, mean of 3 samples, untreated 3.48): 8.93
Total apopt (HCC827 cells; DBG 6 nM, mean of 3 samples, untreated 4.78): 15.30
Live (HCC827 cells; DBG 6 nM, mean of 3 samples, untreated 94.01): 82.95
Dead (HCC827 cells; DBG 6 nM, replicate 1): 1.70
Early apoptosis (HCC827 cells; DBG 6 nM, replicate 1): 6.40
Late apoptosis/Dead (HCC827 cells; DBG 6 nM, replicate 1): 9.25
Live (HCC827 cells; DBG 6 nM, replicate 1): 82.65
Total apopt (HCC827 cells; DBG 6 nM, replicate 1): 15.65
Dead (HCC827 cells; DBG 6 nM, replicate 2): 1.90
Early apoptosis (HCC827 cells; DBG 6 nM, replicate 2): 6.75
Late apoptosis/Dead (HCC827 cells; DBG 6 nM, replicate 2): 8.15
Live (HCC827 cells; DBG 6 nM, replicate 2): 83.20
Total apopt (HCC827 cells; DBG 6 nM, replicate 2): 14.90
Dead (HCC827 cells; DBG 6 nM, replicate 3): 1.65
Early apoptosis (HCC827 cells; DBG 6 nM, replicate 3): 5.95
Late apoptosis/Dead (HCC827 cells; DBG 6 nM, replicate 3): 9.40
Live (HCC827 cells; DBG 6 nM, replicate 3): 83.00
Total apopt (HCC827 cells; DBG 6 nM, replicate 3): 15.35
Dead (HCC827 cells; DBG 12 nM, mean of 3 samples, untreated 1.21): 4.72
Early apoptosis (HCC827 cells; DBG 12 nM, mean of 3 samples, untreated 1.30): 19.42
Late apoptosis/Dead (HCC827 cells; DBG 12 nM, mean of 3 samples, untreated 3.48): 25.48
Total apopt (HCC827 cells; DBG 12 nM, mean of 3 samples, untreated 4.78): 44.90
Live (HCC827 cells; DBG 12 nM, mean of 3 samples, untreated 94.01): 50.38
Dead (HCC827 cells; DBG 12 nM, replicate 1): 4.65
Early apoptosis (HCC827 cells; DBG 12 nM, replicate 1): 19.00
Late apoptosis/Dead (HCC827 cells; DBG 12 nM, replicate 1): 25.05
Live (HCC827 cells; DBG 12 nM, replicate 1): 51.30
Total apopt (HCC827 cells; DBG 12 nM, replicate 1): 44.05
Dead (HCC827 cells; DBG 12 nM, replicate 2): 4.15
